Measurements: US20230181499A1, “Hydroxyureamethyl-Acylfulvene for Treating Brain Cancer or CNS Cancer” (Lantern Pharma Inc., priority 2020, published 2023)

Legend:
blood-brain barrier = test: Neuromics in vitro 3D blood-brain barrier model (brain endothelial cells, pericytes, astrocytes); assay type: in vitro ADME, human; settings: for blood-brain barrier penetration (in words): in vitro model system
Text: (§1) To evaluate the in vivo therapeutic activity of Hydroxyureamethyl-acylfulvene in mice bearing glioblastoma U87-SC cells (without any drug treatment in vitro) were inoculated subcutaneously.
(§2) By way of background, the physically, metabolically and immunologically privileged status of the brain presents diagnostic and therapeutic limitations along with treatment-related neurotoxicity issues. A critical property of any drug for GBM would be its ability to penetrate the blood-brain barrier (BBB). […] In the highly representative Neuromics in vitro 3D model that closely recapitulates the human blood-brain barrier, transport properties of the blood-brain barrier are reflected due to the formation of tight junctions, higher expression of specific carriers, or great cell viability. This 3D in vitro model of the blood-brain barrier created by co-culturing brain endothelial cells with pericytes and astrocytes layered in an insert, improves endothelial cell polarization and enhances the formation of tight junctions, provides better endothelial cell-to-cell contact that is important for barrier development, and prevents the dilution of secreted neurotrophic factors. These conditions collectively lead to the development of an in vitro model that can truly mimic the blood-brain barrier. This assay leverages the novel 3D blood-brain barrier model that allows studying both compound transport across the barrier as well as the effect of compounds on the structure and function of the blood-brain barrier. Along with LP-184 and TMZ, the current standard of care chemotherapeutic for GBM, we also compared the behavior of known positive and negative control agents Antipyrine and Cyclosporin A respectively as benchmarks. […] Apparent blood brain barrier permeability measured for TMZ was 1.72*10-4 cm/s at 30 minutes and for LP-184 was 1.53*10-4 cm/s at 30 minutes, as illustrated in the following graph.

[1] = tested on: glioblastoma U87-SC cells; test: U87 subcutaneous xenograft tumor model of GBM; assay type: in vivo, mice; settings: 4 every other day intravenous doses at 4 mg/kg
Text: as §1

GBM neurospheres (M1123) = test: Mice implanted with GBM neurospheres (M1123), subcutaneous tumor model; assay type: in vivo
[2] = Neuromics in vitro 3D blood-brain barrier model (brain endothelial cells, pericytes, astrocytes); assay type: in vitro ADME, human; settings: human
Text: as §1, §2

Row | SMILES | blood-brain barrier integrity (blood-brain barrier; FIG. 3) | impact on cell viability (blood-brain barrier; blood-brain barrier model, FIG. 3/4) | blood-brain barrier penetration (in words) (blood-brain barrier) | blood-brain barrier penetration (in words) (blood-brain barrier; listed as Hydroxyureamethyl-acylfulvene) | tumor response [1] | mice with no measurable tumors 12 days post the last dosing ([1]; 5 mice treated) | tumor response (GBM neurospheres (M1123); 4 every other day intravenous doses at 4 mg/kg) | mice with no measurable tumor after 12 days of the last dose (GBM neurospheres (M1123); 4 every other day intravenous doses at 4 mg/kg, four mice) | tumor volume relative to vehicle-treated control mice (physical observation) (GBM neurospheres (M1123); FIG. 7) | Papp at 30 min [2] [×10⁻⁶ cm/s]
1 | CC1=C(CN(O)C(N)=O)C2=C(C)C3(CC3)[C@@](C)(O)C(=O)C2=C1 [LP-184, hydroxyureamethyl-acylfulvene] | not compromised | insignificant impact on cell viability | as effective as TMZ in penetrating the blood-brain barrier | shown to cross the blood-brain barrier | complete tumor regression | all 5 mice | complete tumor regression | Three of four mice | clear tumor growth inhibition | –
2 | Cn1nnc2c(C(N)=O)ncn2c1=O [TMZ, temozolomide, reference compound] | – | – | – | – | – | – | – | – | – | 172
